The text below walks through data of patent US6545033B1, “Fused 1-(2,6-dichloro-4-trifluoromethylphenyl)-pyrazoles, the synthesis thereof and the use thereof as pesticides” (3-Dimensional Pharmaceuticals, Inc., priority 1999, dated 2003).

The target of test [1] is T1, Housefly GABA receptors (Musca domestica, UniProt Q75NA5).
T1 sequence (Q75NA5 30-576): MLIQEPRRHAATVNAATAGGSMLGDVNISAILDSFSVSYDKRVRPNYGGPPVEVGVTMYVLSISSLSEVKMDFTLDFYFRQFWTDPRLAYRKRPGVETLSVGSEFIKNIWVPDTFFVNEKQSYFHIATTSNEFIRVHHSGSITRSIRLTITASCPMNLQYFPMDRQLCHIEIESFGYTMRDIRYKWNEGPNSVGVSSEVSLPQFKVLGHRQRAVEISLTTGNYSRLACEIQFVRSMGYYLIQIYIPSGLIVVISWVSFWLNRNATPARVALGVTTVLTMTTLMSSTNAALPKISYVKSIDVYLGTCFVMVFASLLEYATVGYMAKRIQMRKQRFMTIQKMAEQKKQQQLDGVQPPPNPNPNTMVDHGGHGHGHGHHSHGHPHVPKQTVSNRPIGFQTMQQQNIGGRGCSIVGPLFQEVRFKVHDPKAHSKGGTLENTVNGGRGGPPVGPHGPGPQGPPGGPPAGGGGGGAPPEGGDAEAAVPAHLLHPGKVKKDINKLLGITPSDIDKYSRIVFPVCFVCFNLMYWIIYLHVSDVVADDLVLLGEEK
The test is described as follows: In vitro assay of binding to housefly GABA receptors (3H-EBOB displacement, housefly neuronal membranes). As to conditions: displacement of 5.2 nM 3H-EBOB, housefly head neuronal membranes, about 45 min at about 24° C.; read-out: IC50 (nM), Fly Head. Here is the method:
Newly emerged houseflies (Musca domestica, available from Rincon-Vitova Insectaries, Inc., Ventura, Calif.) were sedated with carbon dioxide gas, collected in 50 mL polypropylene conical tubes, and immediately frozen by submersion in liquid nitrogen. Unless specified, all of the following work was performed at 0-4° C. After removal from liquid nitrogen, the tubes of frozen houseflies were shaken vigorously by hand to decapitate the houseflies. […] Contaminating wings were removed by holding a vacuum nozzle approximately 4 cm above the heads, and contaminating legs were separated from the heads by passage through a #15 mesh screen. All remaining debris were removed from the pool of heads using forceps. The purified heads were collected in 50 mL polypropylene conical tubes and stored in liquid nitrogen until processed further.
About 13 g of purified housefly heads were suspended in about 65 mL of 10% sucrose buffer (10% sucrose (w/w) in 10 mM Tris, pH 7.5). The heads were homogenized for about 1 minute, using a Tissumizer™ homogenizer equipped with a SDT-100EN probe (available from Tekmar-Dohrmann, Cincinnati, Ohio) running at 70% of its maximum speed. The extract was further homogenized by about 5 passes through a 40 mL Dounce tissue grinder. The extract was then centrifuged at about 500×g for about 5 minutes to pellet large debris. The supernatant was collected; the pellet was washed with an additional 65 mL of 10% sucrose buffer and centrifuged at 500×g for about 5 minutes. The second supernatant was collected and combined with the first supernatant, and the pool was filtered through a 100μ CellMicroSieve™ mesh to remove residual debris (available from BioDesign of New York, Carmel, N.Y.).
Neuronal membranes containing active GABA receptors were collected via sucrose density centrifugation by the following method. About 8 mL of 35% sucrose buffer (35% sucrose (w/w) in 10 mM Tris, pH 7.5), were dispensed into each of six 38 mL ultracentrifuge tubes. These layers were overlaid with about 8 mL of 20% sucrose buffer (20% sucrose (w/w) in 10 mM Tris, pH 7.5), and finally overlaid with about 20 mL of filtered extract supernatant. The tubes were centrifuged at about 120,000×g for about 100 min at 4° C. After centrifugation, the 10% sucrose layer and most of the 20% sucrose layer were removed by aspiration. The membranes at the interface of the 20% sucrose and 35% sucrose layers were collected, pooled, diluted with 10% sucrose buffer, and centrifuged at about 120,000×g for about 40 min at 4° C. After centrifugation, the supernatant was discarded, and the pellets resuspended in about 6.5 mL of assay buffer (10 mM phosphate, 300 mM NaCl, pH 7.5) using a 10 mL Potter-Elvehjem tissue grinder with a Teflon® pestle. Protein concentration was determined by the Bio-Rad Protein Assay (available from Bio-Rad Laboratories, Hercules, Calif.) using bovine serum albumin as a standard. The membranes were aliquoted and stored in liquid nitrogen for up to 2 months before use.
Housefly neuronal membranes were prepared as described above from housefly heads. Test compounds were dissolved in dimethylsulfoxide (DMSO) at concentrations ranging from about 2 nM to about 100 mM. About 1 μL of a dissolved test compound was dispensed into a well of a 96-well polystyrene plate. About 100 μL of ice cold assay buffer (10 mM phosphate, 300 mM NaCl, pH 7.5) containing 5.2 nM 4′-Ethynyl-4-n-[2,3-^3H2]propylbicycloorthobenzoate (^3H-EBOB, 38 Ci/mmol, available from NEN Life Science Products, Boston, Mass.) was added to the well, followed by about 100 μL of ice cold assay buffer containing about 0.5-1.0 mg/mL housefly neuronal membranes. Control wells were prepared the same way except that the housefly neuronal membranes were omitted from the “negative” wells, and the test compounds were omitted from the “positive” wells. […]

The test system of test [2] is cat fleas (Ctenocephalides felis), CO Fleas. The test is described as follows: In vivo cat flea contact assay, CO fleas. As to conditions: contact with treated filter disk in vial, about 24-30 hours, mM = concentration of the DMSO solution, about 1 μL applied; for LC50: Ctenocephalides felis, topical, read-out: LD50 (mM), CO Fleas. Here is the method:
(§1) This example describes an in vivo assay to screen compounds for their ability to kill cat fleas via contact.
(§2) Test compounds were dissolved in dimethylsulfoxide (DMSO) at concentrations ranging from about 0.05 mM to about 100 mM. About 1 μL of dissolved test compound was dispensed onto a 6 mm (diameter) GF/C filter disk (filter material available from Whatman Inc., Clifton, N.J.) in the bottom of a 4 mL screw-top glass vial and allowed to air dry 24-48 hours. Positive control vials were prepared in the same manner except that no test compounds were dissolved in the DMSO. About 20 newly emerged cat fleas (Ctenocephalides felis) were sedated by refrigeration at 0-4° C. and transferred to each vial. Each vial was sealed with a thin, perforated Teflon™ septum secured by an open top screw cap and held vertically in the dark. After about 24-30 hours, the healthy, moribund, and dead cat fleas in each vial were counted. The percentage of dead cat fleas in each vial was then calculated using the formula M=100(D−(FC/100))/(F−(FC/100)), in which M is the percentage of dead cat fleas due to the addition of the test compound, D is the number of dead cat fleas in the test vial, F is the total number of cat fleas in the test vial, and C is the percentage of dead cat fleas in the control vials.

Test [3] relates to houseflies (Musca domestica). The test is described as follows: In vivo housefly contact assay. As to conditions: contact in coated glass test tube, about 24 hours; mM = concentration of the DMSO solution, about 1 μL applied. Here is the method:
This example describes an in vivo assay to screen compounds for their ability to kill houseflies via contact. Newly emerged houseflies (Musca domestica, available from Rincon-Vitova Insectaries, Inc., Ventura, Calif.) were sedated with carbon dioxide gas, collected in 50 mL polypropylene conical tubes containing filter paper saturated with 10% (w/w) sucrose in water, and allowed to feed at room temperature for about 2-4 hours. Test compounds were dissolved as in dimethylsulfoxide (DMSO) at concentrations ranging from about 0.05 mM to about 100 mM. About 1 μL of dissolved test compound and about 100 μL of isopropanol were dispensed into the bottom of a 9 mL screw-top glass test tube. Positive control test tubes were prepared in the same manner except that no test compounds were dissolved in the DMSO. Each test tube was rolled to coat the sides with the chemical solution, and allowed to air dry 24-48 hours. About 20 houseflies were sedated by refrigeration at 0-4° C. and transferred to each test tube. Each test tube was sealed with organdy cloth secured by an open top screw cap and laid horizontally in the dark. After about 24 hours, the healthy, moribund, and dead houseflies in each test tube were counted. The percentage of dead houseflies in each test tube was then calculated using the formula M=100(D−(FC/100))/(F−(FC/100)), in which M is the percentage of dead houseflies due to the addition of the test compound, D is the number of dead houseflies in the test tube, F is the total number of houseflies in the test tube, and C is the percentage of dead houseflies in the control test tubes.

Test [4] concerns cat fleas (Ctenocephalides felis), NC Fleas. The test is described as follows: In vivo cat flea contact assay, NC fleas. As to conditions: contact with treated filter disk in vial, about 24-30 hours; mM = concentration of the DMSO solution, about 1 μL applied. The method, then:
as §1, §2

In test [5] the target is Mouse Brain GABA Receptors. As to the kind of experiment: In vitro assay of binding to mouse brain GABA receptors (3H-EBOB displacement, mouse brain membranes). As to conditions: displacement of 5.2 nM 3H-EBOB, about 45 min at about 24° C. Here is the method: Mouse brains were obtained from carbon dioxide-asphyxiated Swiss-Webster mice, washed with phosphate-buffered saline, and used either fresh or after storage at −80° C. for up to 10 months. Unless specified, all preparation steps were performed at 0-4° C. For each preparation, 20 brains were suspended in about 40 mL of 0.32 M sucrose and homogenized for about 2 minutes, using a Tissumizer™ homogenizer equipped with a SDT-100EN probe (available from Tekmar-Dohrmann, Cincinnati, Ohio) running at 50% of its maximum speed. The extract was centrifuged for about 5 min at about 1000×g to pellet intact brain tissue. The supernatant was retained and the pellet washed with an additional 40 mL of 0.32 M sucrose and centrifuged at 1000×g for about 5 minutes. The 1000×g supernatants were combined and centrifuged at about 10,000×g for about 20 min to pellet membranes. The 10,000×g supernatant was discarded and the pellet was resuspended in about 20 mL of water containing 1 mM EDTA. The sample was dialyzed two times for about 3 hours each against about 3 L of water. The sample was then centrifuged at about 25,000×g for about 30 min to pellet the membranes. After centrifugation, the supernatant was discarded and the wet pellet recovered. The protein concentration of the pellet was determined by the Bio-Rad Protein Assay (available from Bio-Rad Laboratories, Hercules, Calif.) using bovine serum albumin as a standard. The membranes were aliquoted and stored at −80° C. for up to 6 months before use.
Mouse brain membranes were prepared as described above from dissected mouse brains. Test compounds were dissolved in dimethylsulfoxide (DMSO) at concentrations ranging from about 2 nM to about 100 mM. About 1 μL of a dissolved test compound was dispensed into a well of a 96-well polystyrene plate. About 100 μL of ice cold assay buffer (10 mM phosphate, 300 mM NaCl, pH 7.5) containing 5.2 nM 4′-Ethynyl-4-n-[2,3-^3H2]propylbicycloorthobenzoate (^3H-EBOB, 38 Ci/mmol, available from NEN Life Science Products, Boston, Mass.) was added to the well, followed by about 100 μL of ice cold assay buffer containing about 0.25-0.5 mg/mL mouse brain membranes. Control wells were prepared the same way except that the mouse brain membranes were omitted from the “negative” wells, and the test compounds were omitted from the “positive” wells. The samples were incubated for about 45 min at about 24° C. and then filtered on a 0.1% (w/v) polyethylenimine-soaked glass fiber Filtermat A (available from EG&G Wallac Inc., Gaithersburg, Md.) followed by four 100 mL rinses of cold assay buffer using a Harvester 96® cell harvester (available from Tomtec, Orange, Conn.). The filtermat was air dried and radioactivity bound to the filtermat was detected with either a 1450 MicroBeta® Trilux scintillation counter (available from EG&G Wallac Inc.) or a Topcount NXT™ scintillation counter (available from Packard Instrument Co., Meriden, Conn.) using standard methods.
Specific binding was considered to be the difference between total ^3H bound to the mouse brain membranes in the absence of any inhibitors and nonspecific ^3H bound to the mouse brain membranes upon the addition of 5 μM unlabeled EBOB. The average radioactivity contained in the “negative” wells was subtracted from each of the assay wells. […] Compounds that displaced ^3H-EBOB specifically bound to the mouse brain membranes were tested at 24-48 different final concentrations, varying from about 1 nM to about 125 μM, in order to determine the concentration at which 50% of the maximum inhibition due to the addition of that compound was observed (IC50). […]

Regarding `CC1(O)c2cn(-c3c(Cl)cc(C(F)(F)F)cc3Cl)nc2C(F)C1F` (stereo not shown) [Compound 88, 2-[2,6-Dichloro-4-(trifluoromethyl)phenyl]-5,6-difluoro-4-methyl-2,4,5,6-tetrahydrocyclopenta[c]pyrazol-4-ol], the IC50 in test [1] was found to be 350 nM. Moreover, in test [2], the LC50 is 5 mM.
Consider `O=S1(=O)Cc2cn(-c3c(Cl)cc(C(F)(F)F)cc3Cl)nc2C1` [3″, 2-[2,6-Dichloro-4-(trifuoromethyl)phenyl]-4,6-dihydrothieno-[3,4-c]pyrazole-5,5-dione], for which the “LD50 (mM), Flies” value in test [3] turned out to be 5 mM. For the same compound, in test [2], the “LD50 (mM), CO Fleas” value is greater than 100 mM. In addition, the “LD50 (mM), NC Fleas” value in test [4] is recorded as greater than 100 mM.
`F[C@@H]1Cc2cn(-c3c(Cl)cc(C(F)(F)F)cc3Cl)nc2[C@@H]1F` (relative stereo) [Compound 81, cis-2-[2,6-Dichloro-4-(trifluoromethyl)phenyl]-5,6-difluoro-2,4,5,6-tetrahydrocyclopenta[c]pyrazole] came in with an IC50 in test [5] of 1000 nM. The LC50 in test [2] came out at 1.5 mM.
Consider `FC1c2nn(-c3c(Cl)cc(C(F)(F)F)cc3Cl)cc2C(F)(F)C1F` (stereo not shown) [Compound 89, 2-[2,6-Dichloro-4-(trifluoromethyl)phenyl]-4,4,5,6-tetrafluoro-2,4,5,6-tetrahydrocyclopenta[c]pyrazole], for which the IC50 in test [5] worked out at 180 nM. Besides, in test [2], the LC50 was less than 0.5 mM.
With `CC1(O)c2cn(-c3c(Cl)cc(C(F)(F)F)cc3Cl)nc2CC1F` (stereo not shown) [Compound 57, 2-[2,6-Dichloro-4-(trifluoromethyl)phenyl]-5-fluoro-4-methyl-2,4,5,6-tetrahydrocyclopenta[c]pyrazol-4-ol], the IC50 in test [5] was 25000 nM. The LC50 in test [2] stood at 3.8 mM.
As to `FC(F)(F)c1cc(Cl)c(-n2cc3c(n2)CC(F)(F)C3(F)F)c(Cl)c1` [Compound 92, 2-[2,6-Dichloro-4-(trifluoromethyl)phenyl]-4,4,5,5-tetrafluoro-2,4,5,6-tetrahydrocyclopenta[c]pyrazole], in test [5], the IC50 came out at 60 nM. Besides, the LC50 in test [2] is less than 0.5 mM.
